“And” between values parts separate entries of the source, which are not always exact repeats. Equal values may be shown once. Values belong to the molecule of their own block, whether it stands above or below them.
Columns and labels:
[1] = target: T1, TEC (Homo sapiens, UniProt P42680); conditions: 1 µM inhibition screening; ref SI 8–10; cited from earlier work
T1 construct: host or cells: HEK296T (so in the source)
T1 sequence (P42680 1-631): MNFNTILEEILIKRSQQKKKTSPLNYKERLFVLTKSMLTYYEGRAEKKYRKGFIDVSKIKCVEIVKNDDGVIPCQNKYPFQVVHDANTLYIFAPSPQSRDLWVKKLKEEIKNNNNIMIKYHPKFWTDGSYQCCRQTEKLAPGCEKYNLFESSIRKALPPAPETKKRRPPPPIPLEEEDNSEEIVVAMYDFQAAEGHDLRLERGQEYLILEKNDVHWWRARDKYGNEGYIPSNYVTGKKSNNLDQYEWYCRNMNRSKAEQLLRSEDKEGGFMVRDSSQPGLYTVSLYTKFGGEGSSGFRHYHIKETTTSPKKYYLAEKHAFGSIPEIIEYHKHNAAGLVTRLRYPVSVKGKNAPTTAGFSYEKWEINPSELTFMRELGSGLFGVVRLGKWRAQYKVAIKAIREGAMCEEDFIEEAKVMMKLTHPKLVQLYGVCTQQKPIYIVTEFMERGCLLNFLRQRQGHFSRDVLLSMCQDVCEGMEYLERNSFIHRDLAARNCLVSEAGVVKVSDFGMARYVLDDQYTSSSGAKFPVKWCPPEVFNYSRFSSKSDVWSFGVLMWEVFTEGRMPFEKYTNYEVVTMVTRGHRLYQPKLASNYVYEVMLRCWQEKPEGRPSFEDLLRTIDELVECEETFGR

[2] = target: T2, TXK (Homo sapiens, UniProt P42681); conditions: cited from earlier work
T2 construct: host or cells: HEK296T (so in the source)
T2 sequence (P42681 1-527): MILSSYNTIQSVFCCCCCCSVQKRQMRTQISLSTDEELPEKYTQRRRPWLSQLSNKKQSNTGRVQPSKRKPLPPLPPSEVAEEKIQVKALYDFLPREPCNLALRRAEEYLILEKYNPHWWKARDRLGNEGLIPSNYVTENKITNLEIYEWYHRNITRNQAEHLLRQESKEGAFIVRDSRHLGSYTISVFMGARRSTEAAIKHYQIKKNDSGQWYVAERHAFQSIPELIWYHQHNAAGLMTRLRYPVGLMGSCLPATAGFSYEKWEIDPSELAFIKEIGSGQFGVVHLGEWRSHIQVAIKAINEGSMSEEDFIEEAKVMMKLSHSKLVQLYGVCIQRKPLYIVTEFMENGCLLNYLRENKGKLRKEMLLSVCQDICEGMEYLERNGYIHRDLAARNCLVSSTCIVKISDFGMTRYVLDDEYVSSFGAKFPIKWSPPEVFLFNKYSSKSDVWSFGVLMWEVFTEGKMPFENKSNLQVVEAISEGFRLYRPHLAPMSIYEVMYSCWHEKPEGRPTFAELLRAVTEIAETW

[3] = target: T3, EGFR (Homo sapiens, UniProt P00533); conditions: cited from earlier work
T3 construct: host or cells: HEK296T (so in the source)
T3 sequence (P00533 25-1210): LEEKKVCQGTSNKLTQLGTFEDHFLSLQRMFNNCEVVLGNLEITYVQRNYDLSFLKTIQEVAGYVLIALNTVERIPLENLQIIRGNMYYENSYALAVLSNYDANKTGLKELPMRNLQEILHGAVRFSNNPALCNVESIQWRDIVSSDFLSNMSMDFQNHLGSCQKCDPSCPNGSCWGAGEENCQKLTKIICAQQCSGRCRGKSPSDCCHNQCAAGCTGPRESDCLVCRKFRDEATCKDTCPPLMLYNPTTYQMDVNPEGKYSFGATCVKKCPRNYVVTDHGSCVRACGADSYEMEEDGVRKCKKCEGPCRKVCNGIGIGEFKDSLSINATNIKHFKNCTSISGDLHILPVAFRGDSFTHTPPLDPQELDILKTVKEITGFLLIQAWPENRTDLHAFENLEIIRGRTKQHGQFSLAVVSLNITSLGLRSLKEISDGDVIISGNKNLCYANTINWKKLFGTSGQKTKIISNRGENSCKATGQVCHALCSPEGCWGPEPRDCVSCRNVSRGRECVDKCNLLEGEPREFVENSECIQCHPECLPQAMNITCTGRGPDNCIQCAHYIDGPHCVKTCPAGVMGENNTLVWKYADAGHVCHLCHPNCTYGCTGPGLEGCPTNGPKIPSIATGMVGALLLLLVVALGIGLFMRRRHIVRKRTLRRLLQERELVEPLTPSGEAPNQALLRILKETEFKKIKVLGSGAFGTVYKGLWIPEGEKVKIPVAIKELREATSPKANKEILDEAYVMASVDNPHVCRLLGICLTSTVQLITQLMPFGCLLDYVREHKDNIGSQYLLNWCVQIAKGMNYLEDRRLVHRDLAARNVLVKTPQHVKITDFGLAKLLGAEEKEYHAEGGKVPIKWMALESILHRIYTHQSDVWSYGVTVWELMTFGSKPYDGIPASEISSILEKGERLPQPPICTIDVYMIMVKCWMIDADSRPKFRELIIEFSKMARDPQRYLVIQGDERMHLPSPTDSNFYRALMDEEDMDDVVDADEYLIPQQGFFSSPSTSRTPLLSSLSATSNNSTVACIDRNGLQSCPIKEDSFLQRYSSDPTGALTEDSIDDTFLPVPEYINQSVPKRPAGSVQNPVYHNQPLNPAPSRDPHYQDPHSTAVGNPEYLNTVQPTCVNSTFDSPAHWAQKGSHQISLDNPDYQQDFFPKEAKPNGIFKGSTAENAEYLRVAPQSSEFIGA

[4] = target: BLK (Homo sapiens, UniProt P51451); conditions: cited from earlier work
Chain of BLK (P51451 whole entry): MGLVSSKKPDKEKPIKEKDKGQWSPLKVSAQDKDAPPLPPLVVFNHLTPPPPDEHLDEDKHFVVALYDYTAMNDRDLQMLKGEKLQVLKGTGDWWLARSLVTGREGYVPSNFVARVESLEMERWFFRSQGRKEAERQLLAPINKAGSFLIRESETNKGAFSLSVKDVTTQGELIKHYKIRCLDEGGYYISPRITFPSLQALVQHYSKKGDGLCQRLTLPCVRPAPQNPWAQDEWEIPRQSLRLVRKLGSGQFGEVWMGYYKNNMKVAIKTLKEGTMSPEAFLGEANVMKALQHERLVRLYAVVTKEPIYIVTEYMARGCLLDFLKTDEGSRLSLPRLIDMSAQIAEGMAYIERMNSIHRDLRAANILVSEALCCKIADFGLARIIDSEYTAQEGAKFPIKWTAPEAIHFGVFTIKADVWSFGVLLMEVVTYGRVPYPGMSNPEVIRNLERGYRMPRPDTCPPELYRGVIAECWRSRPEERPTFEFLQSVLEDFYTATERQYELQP

[5] = test system: Her2; conditions: read-out: IC50, Her2; Table S3 heat map; ref SI 1-19; cited from earlier work
[6] = target: BTK (Homo sapiens, UniProt Q06187); set-up: purchased Promega Corporation V2941; conditions: Table S3 heat map; ref SI 1-19; read-out: IC50, BTK; cited from earlier work
Chain of BTK (Q06187 whole entry): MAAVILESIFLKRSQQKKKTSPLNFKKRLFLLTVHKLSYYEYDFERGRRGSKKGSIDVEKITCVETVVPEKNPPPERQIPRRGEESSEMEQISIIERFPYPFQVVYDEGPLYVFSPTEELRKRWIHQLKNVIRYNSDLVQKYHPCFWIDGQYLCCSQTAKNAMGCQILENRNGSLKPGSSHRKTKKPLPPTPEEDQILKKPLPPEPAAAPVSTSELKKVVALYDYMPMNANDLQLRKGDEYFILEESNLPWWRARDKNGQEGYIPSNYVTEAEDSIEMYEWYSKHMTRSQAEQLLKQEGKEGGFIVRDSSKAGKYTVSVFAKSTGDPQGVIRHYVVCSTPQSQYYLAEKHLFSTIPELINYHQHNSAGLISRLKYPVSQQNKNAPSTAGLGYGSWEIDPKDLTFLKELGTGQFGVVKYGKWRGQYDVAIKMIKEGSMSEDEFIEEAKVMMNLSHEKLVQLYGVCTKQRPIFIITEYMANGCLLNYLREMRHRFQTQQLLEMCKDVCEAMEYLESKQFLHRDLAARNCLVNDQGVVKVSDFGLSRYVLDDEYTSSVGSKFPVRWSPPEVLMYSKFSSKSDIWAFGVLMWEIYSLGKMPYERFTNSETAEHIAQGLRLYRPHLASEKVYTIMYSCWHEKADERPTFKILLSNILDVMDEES

[7] = test system: MOLM-13 cells (AML); assay: Cell viability assay (CellTiter-Glo), MOLM-13; type: cell-based; conditions: Homo sapiens, 72 h, n = 3
Description: (§1) All cell lines were purchased from ATCC, except for DoHH-2 cells that were obtained from DSMZ. Cells were cultivated in complete DMEM supplemented with 10% (vol/vol) FBS (Gibco) and 1% of penicillin/streptomycin (Gibco). The cells were grown in a humidified atmosphere of 5% CO2 at 37°C, with the medium changed every other day.
(§2) Cells were inoculated at a density of 5000 cells/well. Serially diluted compounds (starting at 50 μM) were added 24 h later. The assay was performed in triplicates. After 72 h of incubation, cellular viability was assessed by CellTiter-Glo (Promega) according to the manufacturer’s instructions. The values were normalized with the vehicle (DMSO), and the IC50 was calculated using GraphPad Prism 8.

[8] = test system: HBEC-5i cell model; assay: In vitro blood–brain barrier permeability (translocation), HBEC-5i cell model; type: in vitro ADME, human; conditions: Translocation 24 h, compound 15 μM
Description: Human cerebral microvascular endothelial cells (HBEC-5i) were cultured as a monolayer on attachment factor protein solution (AF)-coated T-flasks (Gibco), using DMEM/F12 medium (Gibco), supplemented with 10% FBS, 1% penicillin/streptomycin, and 40.0 μg/mL endothelial cell growth supplement (ECGS, Sigma), according to the manufacturer’s instructions. The capacity of the compounds to cross the brain–blood barrier (BBB) was evaluated using an in vitro HBEC-5i cell model, as previously described.[29] Samples from the apical and basolateral sides were collected, and fluorescence intensity was measured using a Varioskan LUX multimode microplate reader. The retention was considered the difference between the initial fluorescence of compounds (100%) and the aggregated apical and basolateral fluorescence.

[9] = test system: Raji cells (BL); assay: Cell viability assay (CellTiter-Glo), Raji; type: cell-based; conditions: Homo sapiens, 72 h, n = 3
Description: as §1, §2

[10] = test system: DoHH-2 cells (DLBCL); assay: Cell viability assay (CellTiter-Glo), DoHH-2; type: cell-based; conditions: Homo sapiens, 72 h, n = 3
Description: as §1, §2

[11] = test system: HL-60 cells (APML); assay: Cell viability assay (CellTiter-Glo), HL-60; type: cell-based; conditions: Homo sapiens, 72 h, n = 3
Description: as §1, §2

[12] = test system: Raji cells; assay: Mice xenograft model of Burkitt’s lymphoma (subcutaneous Raji cells); type: in vivo
Description: Female adult BALB/c/NSG mice were injected subcutaneously with 1 × 10^6 Raji cells, in a 1:1 solution of Matrigel Matrix (Corning) to create solid tumors. When tumors reached 180 mm^3 on average, mice were randomized into four groups (n = 6/group), and dosing began every 2 days. […] Tumor size and body weight were monitored periodically for 12 days. At the end of the experiment, mice necropsies were performed. Stereological analysis was conducted by the Histopathology Unit at Instituto Gulbenkian de Ciência and by the Comparative Pathology Unit at Instituto de Medicina Molecular João Lobo Antunes. Quantification of metastases and cell necrosis was performed in all groups (n = 5/group). Statistical analysis was conducted using one-way ANOVA. The Dunnet test was used to analyze the statistical significance between the treatment groups and the control.

[13] = test system: PBMCs from CLL patients; assay: Zebrafish patient-derived xenografts of chronic lymphocytic leukemia; type: in vivo; conditions: all zPDXs, 48 h of treatment
Description: Whole blood (3–6 mL) from CLL patients (Supporting Table S1) was collected, and PBMCs were purified by Ficoll-Paque PLUS (GE Healthcare) density centrifugation.
The collected PBMCs were resuspended in RPMI (Biowest) with 3 times their volume and centrifuged at 1400 rpm, 4 °C, for 7 min. Cell pellets were resuspended in DPBS 1× (Biowest) supplemented with universal nuclease at 25 U/mL (Thermo Scientific). Concentration was normalized to […] for zebrafish patient-derived xenograft (zPDX) generation. Prior to drug efficacy analysis in zebrafish, the cells were distributed to proceed for flow cytometry, to determine the percentage of CD19+CD5+ cells within the CD45+ population, from PBMCs of each CLL patient. The maximum tolerated concentration was also determined for each compound in noninjected zebrafish larvae (Supporting Figure S1).
Zebrafish larvae were anesthetized with Tricaine 1×, and thawed PBMCs were microinjected into the perivitelline space of anesthetized zebrafish larvae at 48 h post fertilization. […] At the end of the assay, 4 days post injection, zebrafish xenografts were sacrificed with an overdose of Tricaine 25× and fixed in 4% formaldehyde (Thermo Scientific) overnight, followed by storage in 100% methanol (VWR) at −20 °C.
The whole mount immunofluorescence protocol was started by rehydrating the xenografts through methanol series (75% > 50% > 25% in PBS 1×-Triton 0.1%). Next, the xenografts were permeabilized in PBS 1× with 0.1% (v/v) Triton and incubated in a blocking solution (containing 1% BSA and 1.5% goat serum) for 1 h at room temperature. The xenografts were incubated with the primary antibodies (anti-cleaved caspase 3—Cell Signaling Technology, clone Asp175, 9661, 1:100; anti-human mitochondria—Merck Millipore, clone 113-1, MAB1273, 1:50) diluted in the blocking solution overnight at 4 °C, followed by additional overnight incubation with 1:400 of secondary antibodies: Alexa goat anti-rabbit 594 (35560, Thermo Scientific) and Alexa goat anti-mouse 647 (84545, Thermo Scientific), and nuclei counterstaining with DAPI at 50 μg/mL (Sigma-Aldrich).
All images were obtained using a Zeiss LSM 980 Upright confocal laser scanning microscope. Xenografts were mounted in in-house Mowiol mounting media, and sequential images along tumor’s depth (from cloaca until the end of the tail) with a 5 μm interval were acquired using the z-stack function. […] For tumor burden, the area occupied by the PBMCs in each slice of the z-stack pile was determined by ImageJ software and summed up to obtain the tumor burden per xenograft. […]
Statistical analysis was performed using GraphPad Prism 8. […] A Gaussian distribution was only assumed for data sets that pass both normality tests and were analyzed by an unpaired t-test with Welch’s correction. […]

[14] = 1 µM inhibition screening, ref SI 8–10
[15] = 10 mg/kg, average of 5 animals, stereological analysis
[16] = 10 mg/kg, individual animals #1 to #5 in order

Structure (SMILES): C=CC(=O)N1CCC(CNc2ncnc(N)c2-c2ccc(Oc3ccccc3)cc2)CC1 [Evobrutinib, evobrutinib]
inhibition, TEC [1]: 82%
inhibition, TXK [2, 14]: 36%
inhibition, EGFR [3, 14]: 0%
inhibition, BLK [4, 14]: 36%

Structure (SMILES): CC#CC(=O)N1CC[C@@H](n2c(=O)n(-c3ccc(Oc4ccccc4)cc3)c3c(N)ncnc32)C1 [Tirabrutinib, tirabrutinib]
IC50 ([2]; Table S3 heat map, ref SI 1-19): 92 nM
IC50 ([4]; read-out: IC50, BLK, Table S3 heat map, ref SI 1-19): 300 nM
IC50 [5]: 7310 nM

Structure (SMILES): NC(=O)[C@H]1CCN(c2ncnc(N)c2F)C[C@@H]1N1CCC[C@@H](Nc2cc(Cl)cc(C(F)(F)F)c2)C1=O [Vecabrutinib]
IC50 ([3]; Table S3 heat map, ref SI 1-19): > 6000 nM
IC50 [6]: 3 nM

Structure (SMILES): C=CC(=O)N1CCC([C@@H]2CCNc3c(C(N)=O)c(-c4ccc(Oc5ccccc5)cc4)nn32)CC1 [Zanubrutinib, zanubrutinib]
IC50 [5]: 661 nM

IC50 [7]: 28400 ± 30 nM
% Fluorescence, Basolateral side (permeability to the BBB) [8]: 29.2%
Structure (SMILES): CC#CC(=O)N1CCC[C@H]1c1nc(-c2ccc(C(=O)Nc3ccccn3)cc2)c2c(N)nccn12 [acalabrutinib]

IC50 [9]: 36200 ± 310 nM
IC50 [7]: ~460 nM
IC50 [11]: 7740 ± 30 nM
% Fluorescence, Basolateral side (permeability to the BBB) [8]: 51.9%
Structure (SMILES): C=CC(=O)N1CCC[C@@H](n2nc(-c3ccc(Oc4ccccc4)cc3)c3c(N)ncnc32)C1 [ibrutinib, reference compound]
IC50 [10]: ~70 nM
reduction in percentage of metastases ([12]; 10 mg/kg i.p. every 2 days, n = 5/group): around 30%
Metastasis volume, Brain, Average [12, 15]: 0.78 mm³
Metastasis volume, Liver, Average [12, 15]: 4.73 mm³
Metastasis volume, Lung, Average [12, 15]: 26.92 mm³
Metastasis volume, Spinal, Average [12, 15]: 51.37 mm³
Secondary tumour, Average [12, 15]: 64.21 mm³
Metastasis volume, Brain, single animals [12, 16]: 0.86 mm³ and 0.82 mm³ and 0.00 mm³ and 1.72 mm³ and 0.48 mm³
Metastasis volume, Liver, single animals [12, 16]: 12.05 mm³ and 11.54 mm³ and 0.03 mm³ and 0.00 mm³ (2×)
Metastasis volume, Lung, single animals [12, 16]: 134.59 mm³ and 0.00 mm³ (4×)
Metastasis volume, Spinal, single animals [12, 16]: 55.71 mm³ and 86.64 mm³ and 4.378 mm³ and 10.76 mm³ and 99.35 mm³
Secondary tumour, single animals [12, 16]: 96.59 mm³ and 0.00 mm³ (3×) and 224.46 mm³

Structure (SMILES): CC1(C)CCC(CN2CCN(c3ccc(C(=O)NS(=O)(=O)c4ccc(NCC5CCOCC5)c([N+](=O)[O-])c4)c(Oc4cnc5[nH]ccc5c4)c3)CC2)=C(c2ccc(Cl)cc2)C1 [venetoclax, reference compound]
effect on tumor incidence and burden [13]: major impact on tumor incidence and burden

— paper PMC9667546, “Selective Inhibition of Bruton’s Tyrosine Kinase by a Designed Covalent Ligand Leads to Potent Therapeutic Efficacy in Blood Cancers Relative to Clinically Used Inhibitors” (ACS Pharmacology & Translational Science, 2022)
